From patent publication US20080287511A1, “Anthelmintic Imidazol-Thiazole Derivates” (priority 2005, published 2008)

Key:
[1] = test system: PolyRes strain of Haemonchus contortus (resistant against levamisole, mebendazole, ivermectin and closantel); assay: Efficacy study of anthelmintics in in vivo H. contortus/jirds model; parameters: species or system Haemonchus contortus in jirds (Meriones unguiculatus); settings: jirds, oral; for Med. W.b. (median worm burden): treated day 11, necropsy day 14; for % Efficacy: reduction of mean worm count vs control group; for anthelmintic efficacy compared with art known compounds (A) and (B): multi-resistant strain of Haemonchus contortus, comparison in words
Description: The anthelmintic efficacy of the compounds of the present invention was evaluated in an in vivo model using unmedicated jirds (Meriones unguiculatus), inoculated three times with approximately 300 exsheated infective larvae of Haemonchus contortus (multiresistant strain), treated orally with a test compound 11 days after their first infection with H. contortus larvae, and necropsied on day 14 to count the number of recovered H. contortus worms. The anthelmintic efficacy of the art known compounds (A) and (B) was also evaluated using the same model.
Female CRW jirds aged between 28 and 35 days and weighing 30-35 g (Charles River, Sulzfeld, Germany) were used. Three jirds each were assigned randomly upon arrival to translucent polysulfone individually ventilated cages (48×37.5×21 cm) containing wood shavings. Commercial rodent chow and water were given ad libitum. Following a four-day acclimation period, the jirds were artificially infected.
A PolyRes strain of Haemonchus contortus (resistant against levamisole, mebendazole, ivermectin and closantel) was used. This strain has been maintained in artificially infected male donor lambs. Individual feces containing Haemonchus eggs were collected in fecal bags. The fecal pellets were broken, mixed with charcoal, moistened and put in an incubator for embryonation at 28° C. and 95% relative humidity. Seven days later this mixture was placed in Baermann funnels and third stage ensheathed larvae were collected after 12 hours. These larvae were rinsed with water for cleaning and disinfected with a 2% formalin solution. Such larvae can be used immediately for artificial infection or can be stored in the fridge at about 8° C. for a maximum duration of 6 months. Infective larvae (<6 months old) were exsheathed by rinsing with a 3.3 vol % commercial sodium hypochlorite solution during 10 minutes, filtered through a Buchner funnel, rinsed with water, concentrated in a Baermann funnel, and collected after 2 hours. Exsheathed larvae prepared in this manner can be used for subsequent infection of jirds or laid in a supply for extended periods by cooling in the gas over liquid nitrogen during 1 hour and storing in liquid nitrogen at −196° C.
All jirds were inoculated orally with approximately 300 exsheathed infective larvae of H. contortus per dose on three consecutive days. Inoculations were administered using a blunted 18 G dosing needle fitted to a 1 ml syringe.
Eleven days after their first infection jirds were treated with test compounds, suspended or dissolved in 0.4 ml DMSO, and the dose to be tested was administered in a volume of 0.1 ml/50 g bodyweight via a blunted 18 G dosing needle fitted to a 1 ml syringe. Control animals, included in each experiment, remained untreated. Levamisole hydrochloride, mebendazole, ivermectin and closantel were used in different dosage titration experiments to validate the model.
All jirds were starved 20 hours before necropsy and killed on day 14 past first infection by CO2 inhalation. For worm recovery their stomachs were removed, opened longitudinally, and incubated in a beaker with 20 ml digestion fluid (10 g pepsin+30 ml concentrated hydrochloric acid) at 37° C. for 3 hours. Following digestion, the stomach content was passed through a tea-strainer, the passage fluid was catched in a sieve (32 μm) and the worms were recovered with tap water. The beakers were stored in the fridge for subsequent counting.
The content of each beaker was mixed, poured over in a 6-well plate in 6 aliquots, and the worms were counted under an inverted microscope.

Row | Structure (SMILES) | Med. W.b. (median worm burden) ([1]; dose 5 mpk) | % Efficacy ([1]; dose 5 mpk) | Med. W.b. (median worm burden) ([1]; dose 10 mpk) | % Efficacy ([1]; dose 10 mpk) | anthelmintic efficacy compared with art known compounds (A) and (B) [1] | Med. W.b. (median worm burden) ([1]; dose 2.5 mpk) | % Efficacy ([1]; dose 2.5 mpk) | melting point
1 | O=C(Nc1cccc([C@H]2CN3CCSC3=N2)c1)c1ccco1 [Co. No. A, furan-2-carboxylic acid [3-(2,3,5,6-tetrahydro-imidazo[2,1-b]thiazol-6-yl)-phenyl]-amide, reference compound] | 11.0 | 35.3% | 7.0 | 65.0% | – | – | – | –
2 | O=C(Nc1cccc([C@H]2CN3CCSC3=N2)c1)C1CCCO1 (stereo partly drawn) [Co. No. 4] | 5.0 | 68.8% | 3.0 | 85.0% | better demonstrated anthelmintic efficacy than the art known compounds (A) and (B) | – | – | –
3 | c1cc(NCC2CCCO2)cc([C@H]2CN3CCSC3=N2)c1 (stereo partly drawn) [Co. No. B, (tetrahydrofuran-2-ylmethyl)-[3-(2,3,5,6-tetrahydro-imidazo[2,1-b]thiazol-6-yl)-phenyl]-amine, reference compound] | 10.0 | 55.6% | 14.0 | 60.6% | – | – | – | –
4 | O=C(Nc1cccc([C@H]2CN3CCSC3=N2)c1)[C@H]1CCCO1 [Co. No. 1, (2R)-tetrahydro-furan-2-carboxylic acid (6S)-[3-(2,3,5,6-tetrahydro-imidazo[2,1-b]thiazol-6-yl)-phenyl]-amide] | 6.0 | 79.3% | 0.0 | 100.0% | better demonstrated anthelmintic efficacy than the art known compounds (A) and (B) | 36.0 | 65.9% | 42 to 57 °C
